Measurements: PubChem BioAssay (NCI)
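Each compound was tested at five concentrations against cells in 96-well plates for 48 hours. GI50 = concentration required for 50% inhibition of growth. The concentration for full growth arrest is given as TGI.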

Columns and labels:
Test in all cases: inhibition of tumour cell growth, NCI panel, 48 h
786-0 renal = system: 786-0 renal
A498 renal = system: A498 renal
A549 NSCLC = system: A549 NSCLC
ACHN renal = system: ACHN renal
BT-549 breast = system: BT-549 breast
CAKI-1 renal = system: CAKI-1 renal
CCRF-CEM leukemia = system: CCRF-CEM leukemia
COLO 205 colon = system: COLO 205 colon
DU-145 prostate = system: DU-145 prostate
EKVX NSCLC = system: EKVX NSCLC
HCC-2998 colon = system: HCC-2998 colon
HCT-116 colon = system: HCT-116 colon
HCT-15 colon = system: HCT-15 colon
HL-60(TB) leukemia = system: HL-60(TB) leukemia
HOP-62 NSCLC = system: HOP-62 NSCLC
HOP-92 NSCLC = system: HOP-92 NSCLC
HS 578T breast = system: HS 578T breast
HT29 colon = system: HT29 colon
K-562 leukemia = system: K-562 leukemia
M14 melanoma = system: M14 melanoma
MALME-3M melanoma = system: MALME-3M melanoma
MCF7 breast = system: MCF7 breast
MDA-MB-435 = system: MDA-MB-435
NCI-H226 lung = system: NCI-H226 lung
NCI-H23 lung = system: NCI-H23 lung
NCI-H460 lung = system: NCI-H460 lung
NCI-H522 lung = system: NCI-H522 lung
NCI/ADR-RES ovarian = system: NCI/ADR-RES ovarian
OVCAR-3 ovarian = system: OVCAR-3 ovarian
OVCAR-4 ovarian = system: OVCAR-4 ovarian
OVCAR-5 ovarian = system: OVCAR-5 ovarian
OVCAR-8 ovarian = system: OVCAR-8 ovarian
PC-3 prostate = system: PC-3 prostate
RPMI-8226 leukemia = system: RPMI-8226 leukemia
RXF 393 renal = system: RXF 393 renal
SF-268 CNS = system: SF-268 CNS
SF-295 CNS = system: SF-295 CNS
SF-539 CNS = system: SF-539 CNS
SK-MEL-2 melanoma = system: SK-MEL-2 melanoma
SK-MEL-28 melanoma = system: SK-MEL-28 melanoma
SK-MEL-5 melanoma = system: SK-MEL-5 melanoma
SK-OV-3 ovarian = system: SK-OV-3 ovarian
SN12C renal = system: SN12C renal
SNB-75 CNS = system: SNB-75 CNS
SR leukemia = system: SR leukemia
SW-620 colon = system: SW-620 colon
TK-10 renal = system: TK-10 renal
U251 CNS = system: U251 CNS
UACC-257 melanoma = system: UACC-257 melanoma
UO-31 renal = system: UO-31 renal
IGROV1 ovarian = system: IGROV1 ovarian
LOX IMVI melanoma = system: LOX IMVI melanoma
MDA-MB-231 breast = system: MDA-MB-231 breast
MOLT-4 leukemia = system: MOLT-4 leukemia
SNB-19 CNS = system: SNB-19 CNS
UACC-62 melanoma = system: UACC-62 melanoma

## c1ccc2[nH]c(-c3ccc(Nc4nc(N5CCCC5)nc5[nH]ncc45)cc3)nc2c1
786-0 renal
  GI50: 170 nM
  TGI: 347 nM
A498 renal
  GI50: 1510 nM
  TGI: 3010 nM
A549 NSCLC
  GI50: 329 nM
  TGI: 1220 nM
ACHN renal
  GI50: 347 nM
  TGI: 1070 nM
BT-549 breast
  GI50: 1680 nM
  TGI: 3470 nM
CAKI-1 renal
  GI50: 1830 nM
  TGI: 3480 nM
CCRF-CEM leukemia
  GI50: 294 nM
  TGI: 967 nM
COLO 205 colon
  GI50: 217 nM
  TGI: 486 nM
DU-145 prostate
  GI50: 1130 nM
  TGI: 2770 nM
EKVX NSCLC
  GI50: 1450 nM
  TGI: 3120 nM
HCC-2998 colon
  GI50: 294 nM
  TGI: 826 nM
HCT-116 colon
  GI50: 203 nM
  TGI: 473 nM
HCT-15 colon
  GI50: 255 nM
  TGI: 763 nM
HL-60(TB) leukemia
  GI50: 216 nM
  TGI: 517 nM
HOP-62 NSCLC
  GI50: 1460 nM
  TGI: 3070 nM
HOP-92 NSCLC
  GI50: 1140 nM
  TGI: 2750 nM
HS 578T breast
  GI50: 1210 nM
  TGI: 4260 nM
HT29 colon
  GI50: 211 nM
  TGI: 495 nM
K-562 leukemia
  GI50: 202 nM
  TGI: 466 nM
M14 melanoma
  GI50: 403 nM
  TGI: 1620 nM
MALME-3M melanoma
  GI50: 314 nM
  TGI: 1300 nM
MCF7 breast
  GI50: 213 nM
  TGI: 619 nM
MDA-MB-435
  GI50: 1480 nM
  TGI: 3080 nM
NCI-H226 lung
  GI50: 1800 nM
  TGI: 4010 nM
NCI-H23 lung
  GI50: 808 nM
  TGI: 2700 nM
NCI-H460 lung
  GI50: 412 nM
  TGI: 1770 nM
NCI-H522 lung
  GI50: 244 nM
  TGI: 1070 nM
NCI/ADR-RES ovarian
  GI50: 392 nM
  TGI: 1470 nM
OVCAR-3 ovarian
  GI50: 753 nM
  TGI: 2810 nM
OVCAR-4 ovarian
  GI50: 1060 nM
  TGI: 2810 nM
OVCAR-5 ovarian
  GI50: 1230 nM
  TGI: 2870 nM
OVCAR-8 ovarian
  GI50: 241 nM
  TGI: 621 nM
PC-3 prostate
  GI50: 1610 nM
  TGI: 4710 nM
RPMI-8226 leukemia
  GI50: 221 nM
  TGI: 528 nM
RXF 393 renal
  GI50: 814 nM
  TGI: 2270 nM
SF-268 CNS
  GI50: 620 nM
  TGI: 2420 nM
SF-295 CNS
  GI50: 204 nM
  TGI: 477 nM
SF-539 CNS
  GI50: 1050 nM
  TGI: 2240 nM
SK-MEL-2 melanoma
  GI50: 1710 nM
  TGI: 3370 nM
SK-MEL-28 melanoma
  GI50: 181 nM
  TGI: 338 nM
SK-MEL-5 melanoma
  GI50: 1290 nM
  TGI: 2560 nM
SK-OV-3 ovarian
  GI50: 2550 nM
  TGI: 4870 nM
SN12C renal
  GI50: 1670 nM
  TGI: 4150 nM
SNB-75 CNS
  GI50: 1280 nM
  TGI: 2760 nM
SR leukemia
  GI50: 254 nM
  TGI: 870 nM
SW-620 colon
  GI50: 211 nM
  TGI: 486 nM
TK-10 renal
  GI50: 1910 nM
  TGI: 3530 nM
U251 CNS
  GI50: 185 nM
  TGI: 390 nM
UACC-257 melanoma
  GI50: 229 nM
  TGI: 632 nM
UO-31 renal
  GI50: 1460 nM
  TGI: 3540 nM

## CC(=O)OCC1OC(n2c(-c3ccc(C)cc3)cc(-c3ccco3)c(C#N)c2=O)C(OC(C)=O)C(OC(C)=O)C1OC(C)=O (configuration not stated)
HL-60(TB) leukemia
  TGI: > 100000 nM
SNB-75 CNS
  TGI: > 100000 nM

## Nc1nc(N)c2cc(S(=O)(=O)c3cccc(C(F)(F)F)c3)ccc2n1
786-0 renal
  GI50: 3980 nM
  TGI: > 100000 nM
A549 NSCLC
  GI50: 816 nM
  TGI: > 100000 nM
ACHN renal
  GI50: 4430 nM
  TGI: > 100000 nM
CAKI-1 renal
  GI50: > 100000 nM
  TGI: > 100000 nM
CCRF-CEM leukemia
  GI50: 3410 nM
  TGI: > 100000 nM
DU-145 prostate
  GI50: 6350 nM
  TGI: > 100000 nM
EKVX NSCLC
  GI50: 3320 nM
  TGI: > 100000 nM
HCC-2998 colon
  GI50: 5030 nM
  TGI: > 100000 nM
HCT-116 colon
  GI50: 1470 nM
  TGI: > 100000 nM
HCT-15 colon
  GI50: 3090 nM
  TGI: > 100000 nM
HOP-62 NSCLC
  GI50: 6430 nM
  TGI: 34200 nM
HOP-92 NSCLC
  GI50: 3560 nM
  TGI: 38000 nM
HS 578T breast
  GI50: 4550 nM
  TGI: 49700 nM
HT29 colon
  GI50: 2420 nM
  TGI: > 100000 nM
IGROV1 ovarian
  GI50: 5280 nM
  TGI: > 100000 nM
K-562 leukemia
  GI50: 682 nM
  TGI: > 100000 nM
LOX IMVI melanoma
  GI50: 1530 nM
  TGI: > 100000 nM
M14 melanoma
  GI50: 2000 nM
  TGI: > 100000 nM
MALME-3M melanoma
  GI50: 5740 nM
  TGI: > 100000 nM
MCF7 breast
  GI50: 5700 nM
  TGI: > 100000 nM
MDA-MB-231 breast
  GI50: 9750 nM
  TGI: > 100000 nM
MDA-MB-435
  GI50: 2120 nM
  TGI: > 100000 nM
MOLT-4 leukemia
  GI50: 4320 nM
  TGI: > 100000 nM
NCI-H226 lung
  GI50: 21500 nM
  TGI: > 100000 nM
NCI-H23 lung
  GI50: 3630 nM
  TGI: > 100000 nM
NCI-H460 lung
  GI50: 575 nM
  TGI: > 100000 nM
NCI-H522 lung
  GI50: 3050 nM
  TGI: > 100000 nM
NCI/ADR-RES ovarian
  GI50: 7790 nM
  TGI: > 100000 nM
OVCAR-3 ovarian
  GI50: 6000 nM
  TGI: > 100000 nM
OVCAR-4 ovarian
  GI50: 5710 nM
  TGI: > 100000 nM
OVCAR-5 ovarian
  GI50: 6460 nM
  TGI: > 100000 nM
OVCAR-8 ovarian
  GI50: 4220 nM
  TGI: > 100000 nM
PC-3 prostate
  GI50: 3360 nM
  TGI: > 100000 nM
RPMI-8226 leukemia
  GI50: 5210 nM
  TGI: > 100000 nM
RXF 393 renal
  GI50: 3800 nM
  TGI: 57800 nM
SF-268 CNS
  GI50: 4570 nM
  TGI: > 100000 nM
SF-295 CNS
  GI50: 2570 nM
  TGI: 97500 nM
SF-539 CNS
  GI50: 6630 nM
  TGI: > 100000 nM
SK-MEL-2 melanoma
  GI50: 11000 nM
  TGI: 73200 nM
SK-MEL-28 melanoma
  GI50: 85100 nM
  TGI: > 100000 nM
SK-MEL-5 melanoma
  GI50: 2980 nM
  TGI: > 100000 nM
SK-OV-3 ovarian
  GI50: 14800 nM
  TGI: > 100000 nM
SN12C renal
  GI50: 6340 nM
  TGI: > 100000 nM
SNB-19 CNS
  GI50: 5440 nM
  TGI: > 100000 nM
SNB-75 CNS
  GI50: 12900 nM
  TGI: 39800 nM
SW-620 colon
  GI50: 989 nM
  TGI: > 100000 nM
TK-10 renal
  GI50: 7780 nM
  TGI: > 100000 nM
U251 CNS
  GI50: 3520 nM
  TGI: > 100000 nM
UACC-62 melanoma
  GI50: 3410 nM
  TGI: > 100000 nM
UO-31 renal
  GI50: 4960 nM
  TGI: > 100000 nM
